Results: patent US12064468B2, “Compositions and methods relating to a C-terminal peptide of troponin i with activity as a myofilament CA2+ desensitizer” (Wayne State University, priority 2019, dated 2024)
Ends that are not written are not given here.

Columns and labels:
mAb TnI-1 [1] = assay: ELISA titration of mAb TnI-1 against coated fusion proteins / cardiac TnI, non-denaturing; format: binding, mouse; conditions: non-denaturing conditions, protein coated on microtiter plate
Procedure: The ELISA procedure used in the present study for epitope structure and protein binding studies was performed as described in B. J. Biesiadecki et al., Journal of Biomedicine and Biotechnology, (2011) 1-8. Briefly, 96-well microtiter plates were coated with SUMO-HcTnI-C27 fusion protein, SUMO-HcTnI-C27-H fusion protein, purified bovine cardiac TnI, or R192H mutant mouse cardiac TnI (2 μg/mL in Buffer A containing 0.1 M KC1, 3 mM MgCl2, 10 mM PIPES, pH 7.0, 100 microliters/well) at 4° C. overnight. The plates were washed with Buffer T (0.05% Tween-20 in Buffer A) for 10 minutes and tapped dry. The wells were blocked using Buffer B (1% BSA in Buffer T) at room temperature for one hour. After washing again with Buffer T, serial dilutions of primary mAb against the coated protein were added in triplicates in Buffer D (dilution buffer, 0.1% BSA in Buffer T) and the plate was incubated at room temperature for two hours. After Buffer T washes, horseradish peroxidase (HRP)-conjugated anti-mouse immunoglobulin secondary antibody was added to incubate at room temperature for one hour. After final washes, H2O2-2,2′-azinobis-(3-ethylbenzthiazolinesulfonic acid) substrate solution was added for colorimetric development at room temperature and the plate was read using an automated microplate reader at 420 nm at 5 minute intervals for 30 minutes.
The ELISA experiments were done in triplicate wells. […]

mAb TnI-1 [2] = assay: Western blot with mAb TnI-1 (epitope in the C-terminal end of TnI); format: binding, mouse; conditions: after denaturing SDS-PAGE and blotting
Procedure: SDS-PAGE was performed to monitor the expression and identify the C27 peptide in intact TnI and fusion protein constructs. Briefly, 14% Laemmli SDS-PAGE with an acrylamide:bisacrylamide ratio of 29:1 was used to monitor protein expression. Protein samples were prepared by dissolving the proteins in an SDS-PAGE gel sample buffer containing 2% SDS and 3% β-mercaptoethanol. The samples were run on 0.75 mm gels at 20 mA per gel using a Bio-Rad mini-gel system. Resolved gels were stained with Coomassie Blue R-250 and de-stained using 10% acetic acid. The results were documented by imaging using a high resolution scanner.
Tris-Tricine small pore SDS-gels were utilized to […]. Briefly, 15% SDS-PAGE with acrylamide:bisacrylamide ratio of 20:1 was used to monitor the recovery of peptides. Samples were prepared as above. The gel was run using different anode and cathode buffers as described in H. Schagger et al., 166(2) (1987) 368-379; J.-P. Jin, Journal of Biological Chemistry 270(12) (1995) 6908-6916. The running conditions and documentation of results were carried out as above.
The protein bands resolved on SDS-PAGE gels were electrically transferred to nitrocellulose (NC) membranes or polyvinylidene difluoride (PVDF) membranes using a Bio-Rad semidry electrotransfer apparatus at 5 mA per cm^2. The membranes were then blocked with 1% bovine serum albumin (BSA) in Tris-buffered saline (TBS) at room temperature for 30 minutes, and incubated with mAb TnI-1 against an epitope in the C-terminal end of TnI or mAb 3C11 against the Tx3 metal affinity purification tag at 4° C. overnight. The TnI-1 mAb was raised using standard hybridoma technology in which the immunization of mouse used purified intact chicken fast TnI. […] The 3C11 mAb was generated using standard hybridoma technology in which the immunization used a Tx3 metal binding tag fusion protein. […] Washed with 0.05% Triton X-100 and 0.1% SDS in TBS, the membranes were further incubated with alkaline phosphatase-conjugated goat anti-mouse IgG secondary antibody, washed again, and developed in BCIP-NTB substrate solution. The results were documented by imaging using a high resolution scanner.

[3] = tested on: skinned rat ventricular papillary muscle; assay: Force-pCa contractility of skinned rat ventricular papillary muscle sections; format: biochemical; conditions: 20 μM peptide
Procedure: (§1) Permeabilized rat and mouse left ventricular papillary muscle preparations were prepared using a skinned cryosection method. Papillary muscles were dissected with a portion of ventricular free wall in one end and valve tendon in the other end. The isolated papillary muscle was pinned down on a cork at the two ends using 30 gauge needles. A small drop of optimal cutting temperature (O.C.T.) compound was used to fill the space between the muscle tissue and the surface of the cork before flash freezing by quickly submerging in liquid nitrogen. The frozen papillary muscle was sectioned longitudinally at a thickness of 35 μm using a cryostat and collected on a glass slide. Four stacked razor blades were used to cut the muscle sections longitudinally into 140-150 μm wide strips. The muscle strips were washed in a relaxing buffer (BES 40 mM, EGTA 10 mM, MgCl2 6.86 mM, ATP 5.96 mM, DTT 1 mM, creatine phosphate 33 mM, creatine kinase 200 U/mL, K-propionate 3.28 mM, pH 7.0, plus protease inhibitor cocktail) and then gently transferred into myofibril relaxation buffer containing 50% glycerol in a 35 mm culture dish and stored at −20° C. for later use in force-pCa studies.
(§2) For contractility studies, the storage dish was placed on a thermal-controlled metal stage at 0° C. under a dissection scope. Cryosectioned cardiac muscle strips selected with cardiomyocytes clearly organized along the long axis and EDL muscle fibers were mounted between two aluminum T-clips and transferred to an 8-chamber thermo-controlled stage (802D, Aurora Scientific) on an inverted microscope in relaxation buffer at 6-8° C. Seen through a 20× lens, the muscle preparation was connected to a force transducer (403A, Aurora Scientific) and a length controller (322-C, Aurora Scientific). The buffer was then switched to a skinning solution (relaxation buffer containing 1% Triton X-100) for 20 min to further permeabilize the muscle strips. After a wash with relaxation buffer, the permeabilized muscle strip was placed in pCa 9.0 buffer made by mixing the relaxing buffer (pCa 10.0) with an activation buffer (BES 40 mM, EGTA 10 mM, MgCl2 6.64 mM, ATP 6.23 mM, DTT, 1 mM, CaCl2 10 mM, creatine phosphate 33 mM, creatine kinase 200 U/mL, K-propionate 2.09 mM, pH 7.0, plus protease inhibitor cocktail, pCa 4.0) and the sarcomere length was measured through a digital camera attached to the microscope and adjusted to resting sarcomere length of 2.7 μm for EDL muscle fibers or 2.0 μm and 2.3 μm for cardiac muscle fibers. Calcium activated force was examined at pCa 6.5, 6.3, 6.0, 5.8, 5.5, 5.0, and 4.5 at 15° C. using calcium-EGTA buffer sets made using a formula described in S. M. Roche et al., Journal of Visualized Experiments 100 (2015). HcTnI-C27 peptide was then added at 20 μM and the force-pCa measurements were repeated. The force-pCa curves were plotted and fitted using Hill exponential equation for data analysis, see S. M. Roche et al., Journal of Visualized Experiments 100 (2015).

[4] = tested on: skinned mouse EDL muscle fibers; assay: Force-pCa contractility of skinned mouse EDL muscle fibers; format: biochemical; conditions: 20 μM peptide, sarcomere length 2.7 μm
Source text: Extensor digitorum longus (EDL) muscles were obtained from adult C57B/L6 mice immediately after euthanasia to prepare chemically permeabilized muscle preparations as described in J. Ochala et al., The FASEB Journal 25(6) (2011) 1903-1913; and S. M. Roche et al., Journal of Visualized Experiments 100 (2015). Briefly, whole EDL muscles were excised from mice and longitudinally dissected along fibers in a calcium free relaxing buffer. The muscle strips dissected were washed with the relaxing buffer and stored in a 35 mm dish at −20° C. in 50% glycerol relaxing-skinning solution to remove cellular membranes and the endogenous calcium handling system for use in the measurements of calcium sensitivity and force-pCa relationship.
as §2, with “Calcium activated force was examined at pCa 6.5, 6.3, 6.0, 5.8, 5.5, 5.0, and 4.5 at 15° C. using calcium-EGTA buffer sets made using a formula described in S. M. Roche et al., Journal of Visualized Experiments 100 (2015). HcTnI-C27 peptide was then added at 20 μM and the force-pCa measurements were repeated. The force-pCa curves were plotted and fitted using Hill exponential equation for data analysis, see S. M. Roche et al., Journal of Visualized Experiments 100 (2015).” left out

mAb TnI-1 [5] = assay: Competitive ELISA: peptide versus immobilized bovine cardiac TnI for mAb TnI-1; format: binding, mouse; conditions: physiologic solution
Procedure: To compare the folding and conformation of chemically synthesized HcTnI-C27 and HcTnI-C27-H peptides with that of the biologically synthesized counterparts, competitive ELISA affinity titrations against mAb TnI-1 were performed. 96-well microtiter plates were coated with purified bovine cardiac TnI in Buffer A and incubated at 4° C. overnight. Monoclonal antibody (mAb) TnI-1 was added, at a predetermined concentration that produces sub-maximal binding for the immobilized bovine cardiac TnI, to serial dilutions of biologically or chemically synthesized HcTnI-C27 and HcTnI-C27-H peptides. The effects of the peptides on competing with intact cardiac TnI for mAb TnI-1 were measured via HRP-anti-mouse IgG secondary antibody using standard ELISA procedure as described above.

[6] = target: T1, bovine cardiac α-tropomyosin (Bos taurus, UniProt Q5KR49); assay: Competitive ELISA: peptide versus intact bovine cardiac TnI for tropomyosin binding; conditions: serial dilutions of peptide in solution
T1 construct: Purified bovine cardiac α-tropomyosin was coated on 96-well plate; from tissue; host or cells: bovine cardiac muscle (inferred from 'purified bovine cardiac')
Procedure: Competitive tropomyosin binding experiments were performed using a derivative protocol of the microtiter plate ELISA as described in B. J. Biesiadecki et al., Journal of Biomedicine and Biotechnology, (2011) 1-8. Purified bovine cardiac α-tropomyosin was coated on 96-well plate at 5 μg/mL in Buffer A at 4° C. overnight. Washed and blocked as above, bovine cardiac TnI was added, at a predetermined concentration that produces sub-maximal binding for the immobilized tropomyo sin, to serial dilutions of HcTnI-C27 or HcTnI-C27-H peptides for incubation at room temperature for 2 hours. The competition between the cardiac TnI C-terminal peptides and intact cardiac TnI for tropomyosin binding was measured via mAb 4H6 that recognizes an epitope in intact TnI but not in the C-terminal end peptide, see S. Akhter et al., FEBS Open Bio 5 (2015) 64-75, and HRP-anti-mouse IgG secondary antibody using standard ELISA procedure as described above.

[7] = tested on: skinned mouse ventricular papillary muscle; assay: Force-pCa contractility of skinned mouse ventricular papillary muscle; format: biochemical; conditions: 20 μM peptide
Procedure: as §1
For contractility studies, the storage dish was placed on a thermal-controlled metal stage at 0° C. under a dissection scope. […] After a wash with relaxation buffer, the permeabilized muscle strip was placed in pCa 9.0 buffer made by mixing the relaxing buffer (pCa 10.0) with an activation buffer (BES 40 mM, EGTA 10 mM, MgCl2 6.64 mM, ATP 6.23 mM, DTT, 1 mM, CaCl2 10 mM, creatine phosphate 33 mM, creatine kinase 200 U/mL, K-propionate 2.09 mM, pH 7.0, plus protease inhibitor cocktail, pCa 4.0) and the sarcomere length was measured through a digital camera attached to the microscope and adjusted to resting sarcomere length of 2.7 μm for EDL muscle fibers or 2.0 μm and 2.3 μm for cardiac muscle fibers. […]

[8] = sarcomere lengths 2.0 μm and 2.3 μm

Substance | binding of mAb TnI-1 in ELISA titration (mAb TnI-1 [1]) | reactivity to mAb TnI-1 in Western blot (mAb TnI-1 [2]) | pCa50 and cooperativity ([3]; sarcomere length 2.0 μm) | Ca2+-sensitization effect of increasing sarcomere length ([3]; sarcomere length 2.0 μm to 2.3 μm) | cooperativity ([3]; sarcomere length 2.3 μm) | pCa50 ([3]; sarcomere length 2.3 μm) | maximum force production [3, 8] | cooperativity (n) of force-pCa curve [4] | maximum force production [4] | myofilament Ca2+ sensitivity [4] | competition with intact cardiac TnI for binding of mAb TnI-1, synthetic versus biologically made peptide (mAb TnI-1 [5]) | competition with intact bovine cardiac TnI for binding to immobilized tropomyosin [6] | cooperativity ([7]; sarcomere length 2.0 μm, activated state) | Ca2+ sensitivity (force-pCa curves) [7, 8] | maximum force production [7, 8]
Tx3-SUMO-HcTnI-C27-H: HcTnI-C27-H (R192H mutant) expressed as Tx3-SUMO fusion protein (ENREVGDWHKNIDALSGMEGRKKKFES; also: expressed as Tx3-SUMO fusion protein) [reference compound] | clearly detectable but significantly decreased binding to mAb TnI-1 | lost binding to mAb TnI-1 | – | – | – | – | – | – | – | – | – | – | – | – | –
ENREVGDWRKNIDALSGMEGRKKKFES (C-terminal portion of human cardiac troponin I) [HcTnI-C27, the C-terminal 27 amino acid peptide of human cardiac TnI] | – | remains reactive to mAb TnI-1 | small effect on lowering pCa50 and cooperativity | diminished the Ca^2+-sensitization effect of increasing sarcomere length from 2.0 μm to 2.3 μm | trend of decreasing cooperativity | statistically significant right-shift of pCa50 | not affected | significantly decreased cooperativity | not affected | myofilament Ca^2+-desensitization effect predominantly in the activated state | nearly identical effectiveness | dose-dependent competition | significantly lowered cooperativity | right-shifts of the force-pCa curves | not significantly affected
Tx3-SUMO-HcTnI-C27: HcTnI-C27 expressed as fusion protein with Tx3 metal-binding tag and SUMO substrate domain (ENREVGDWRKNIDALSGMEGRKKKFES; also: expressed as Tx3-SUMO fusion protein) | saturable binding of mAb TnI-1 | reactive to mAbTnI-1 | – | – | – | – | – | – | – | – | – | – | – | – | –
ENREVGDWHKNIDALSGMEGRKKKFES (C-terminal portion of human cardiac troponin I with H substitution for R at position 9) [HcTnI-C27-H, R192H mutant of the C-terminal 27 amino acid peptide of human cardiac TnI, reference compound] | – | remains non-reactive to mAb TnI-1 | – | – | – | – | – | – | – | – | drastically lost the binding affinity for mAb TnI-1 | diminished | – | – | –
